Measurements reported in paper PMC9854566, “Antiamnesic Effects of Feralolide Isolated from Aloe vera Resin Miller against Learning Impairments Induced in Mice” (Antioxidants, 2023).

Key:
[1] = molecular target: acetylcholinesterase (AChE), electric eel, type VI-S (Electrophorus electricus, UniProt O42275); test: Ellman spectrophotometric assay ([…] nm); format: biochemical
[2] = molecular target: T1, butyrylcholinesterase (BuChE), equine (Equus caballus, UniProt P81908); test: Ellman spectrophotometric assay ([…] nm); format: biochemical
T1 construct: gene BCHE
T1 sequence (P81908 whole entry): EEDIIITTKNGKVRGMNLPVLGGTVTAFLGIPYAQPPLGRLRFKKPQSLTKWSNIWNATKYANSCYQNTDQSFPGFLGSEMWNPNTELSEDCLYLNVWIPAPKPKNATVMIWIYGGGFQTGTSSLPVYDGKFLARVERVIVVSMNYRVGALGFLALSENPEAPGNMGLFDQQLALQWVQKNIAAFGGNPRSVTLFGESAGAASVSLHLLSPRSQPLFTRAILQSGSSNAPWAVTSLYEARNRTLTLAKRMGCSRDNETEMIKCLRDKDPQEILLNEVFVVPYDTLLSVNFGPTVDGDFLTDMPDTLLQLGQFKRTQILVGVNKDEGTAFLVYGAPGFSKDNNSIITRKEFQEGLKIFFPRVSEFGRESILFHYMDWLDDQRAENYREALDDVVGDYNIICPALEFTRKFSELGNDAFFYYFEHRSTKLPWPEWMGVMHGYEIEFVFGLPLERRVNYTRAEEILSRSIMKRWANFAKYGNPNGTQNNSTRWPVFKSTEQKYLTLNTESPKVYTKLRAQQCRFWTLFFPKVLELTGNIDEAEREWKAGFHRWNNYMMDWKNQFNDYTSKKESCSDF

acetylcholinesterase (AChE), electric eel, type VI-S, sequence (O42275 24-633): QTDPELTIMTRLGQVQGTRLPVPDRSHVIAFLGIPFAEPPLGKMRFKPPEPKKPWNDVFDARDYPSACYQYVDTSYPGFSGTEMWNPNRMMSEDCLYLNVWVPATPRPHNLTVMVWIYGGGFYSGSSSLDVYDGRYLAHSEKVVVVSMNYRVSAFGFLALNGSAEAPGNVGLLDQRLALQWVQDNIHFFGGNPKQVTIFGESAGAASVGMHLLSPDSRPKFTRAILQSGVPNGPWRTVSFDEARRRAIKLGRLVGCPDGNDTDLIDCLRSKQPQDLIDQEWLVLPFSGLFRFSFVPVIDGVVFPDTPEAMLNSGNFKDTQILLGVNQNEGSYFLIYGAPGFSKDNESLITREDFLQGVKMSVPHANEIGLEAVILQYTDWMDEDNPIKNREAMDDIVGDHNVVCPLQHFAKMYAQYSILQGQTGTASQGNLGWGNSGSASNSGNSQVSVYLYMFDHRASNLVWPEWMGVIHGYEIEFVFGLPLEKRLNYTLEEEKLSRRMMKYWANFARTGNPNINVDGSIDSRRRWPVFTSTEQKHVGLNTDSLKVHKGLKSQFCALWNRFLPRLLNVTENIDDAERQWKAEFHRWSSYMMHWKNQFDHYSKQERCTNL

With CC(=O)c1c(O)cc(O)cc1C[C@@H]1Cc2cc(O)cc(O)c2C(=O)O1 [feralolide] the IC50 [1] was 160 µM and the IC50 [2] was 151 µM.
